Test results taken from patent US4407804A, “Analgesic mixture of nalbuphine and indomethacin” (E. I. Du Pont de Nemours and Company, priority 1982, dated 1983).

Test system: phenyl-p-benzoquinone induced writhing in mice
Experiment: Mouse antiphenylquinone (phenyl-p-benzoquinone induced) writhing test, oral
Conditions: for % mice blocked: 40 min
Method: Male CF1 mice obtained from Charles River Breeding Laboratories, fasted for 16-22 hours and weighing 18-22 g at the time of testing are used throughout. All mice are dosed sequentially by the oral route with solutions of indomethacin and/or of nalbuphine hydrochloride. A dosing volume of 10 ml/kg is used for each sequential solution. […] All doses are coded and the test is performed under a code not known to the observer.
A stock solution of indomethacin is prepared by dissolving dry indomethacin powder with an aqueous vehicle containing 2% by volume of Tween 80®, a pharmacological dispersant manufactured by Fisher Scientific Company and containing 100% polysorbate 80. All dosing solutions are prepared by dilution of the stock solution with the 2% Tween 80® vehicle; the vehicle control is 2% Tween 80®. All solutions are prepared fresh daily.
Stock solutions of nalbuphine HCl are prepared by dissolving dry nalbuphine hydrochloride powder with distilled water. All dosing solutions are prepared by dilution of the stock solution with distilled water; the vehicle control is distilled water.
As indicated above, the standard procedure based upon the prevention of phenyl-p-benzoquinone induced writhing in mice is utilized to detect and quantify the analgetic activity of compositions containing nalbuphine and indomethacin.
Mice, intubated with various doses of nalbuphine hydrochloride, indomethacin, combined doses of nalbuphine hydrochloride and indomethacin,or vehicle, are injected intraperitoneally with a standard challenge dose of phenyl-p-benzoquinone 5 minutes prior to the designated observation period. […] For scoring purposes a "writhe" is indicated by whole body stretching or contraction of the abdomen; mice are observed 10 minutes for the presence or absence of writhing beginning 5 minutes after receiving the phenyl-p-benzoquinone dose. Each mouse is used only once, then discarded. […] This dosage as described herein is referred to as the ED50.
In order to study the interaction between nalbuphine and indomethacin, 5 precise dosage ratios of nalbuphine hydrochloride and indomethacin were selected. Four or five coded doses of each selected combination were studied for analgesic effectiveness at 40 minutes using an experimental design which permits coding and complete randomization of the separate dosage forms tested. Altogether 35 separate dosage forms are used and each form is represented in each experimental session. The experiments are continued by running experimental sessions with an equal number of mice per group being tested until the total number, N, of mice tested per group is 60.

Oc1ccc2c3c1O[C@H]1[C@@H](O)CC[C@@]4(O)[C@@H](C2)N(CC2CCC2)CC[C@]314 [Nalbuphine, (-)-17-(cyclobutylmethyl)-4,5α-epoxymorphinan-3,6α,14-triol]
% mice blocked (nalbuphine HCl 5.45 mg/kg, indomethacin 0): 10.0% | % mice blocked (nalbuphine HCl 10.9 mg/kg, indomethacin 0): 13.3% | % mice blocked (nalbuphine HCl 21.8 mg/kg, indomethacin 0): 46.7% | % mice blocked (nalbuphine HCl 43.6 mg/kg, indomethacin 0): 66.7% | % mice blocked (nalbuphine HCl 87.2 mg/kg, indomethacin 0): 66.7% | ED50 at 40 min, Nalbuphine HCl (amount of nalbuphine HCl in the ED50 dose) (mouse, N=60 mice/dose, nalbuphine HCl alone or as component of the fixed-ratio combination): 35.5 mg/kg

COc1ccc2c(c1)c(CC(=O)O)c(C)n2C(=O)c1ccc(Cl)cc1 [Indomethacin, 1-(p-chlorobenzoyl)-5-methoxy-2-methylindole-3-acetic acid]
% mice blocked (indomethacin 0.398 mg/kg, nalbuphine HCl 0): 18.3% | % mice blocked (indomethacin 0.795 mg/kg, nalbuphine HCl 0): 30.0% | % mice blocked (indomethacin 1.59 mg/kg, nalbuphine HCl 0): 78.3% | % mice blocked (indomethacin 3.18 mg/kg, nalbuphine HCl 0): 85.0% | ED50 at 40 min, Indomethacin (amount of indomethacin in the ED50 dose) (mouse, N=60 mice/dose, indomethacin alone or as component of the fixed-ratio combination): 1.08 mg/kg
